Results: ChEMBL document CHEMBL1201862, “PubChem BioAssay data set” (2004)
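Step 1: Grow cells in 96-well plates. Step 2: Expose to compound for 48 hours at 5 concentrations. Step 3: Interpolate endpoints linearly; if unreached, use highest concentration. Here, GI50 denotes the concentration required for 50% inhibition of growth.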 Active and inactive are the calls of the source. Rule as the data show it: active = GI50 up to about 1.1 µM and inactive = higher.

Legend:
Test in all cases: NCI tumour cell line growth inhibition, 48 h
[1] = test system: 786-0
[2] = test system: EKVX
[3] = test system: HCC 2998
[4] = test system: HOP-62
[5] = test system: IGROV-1
[6] = test system: KM12
[7] = test system: LOX IMVI
[8] = test system: NCI-H23
[9] = test system: OVCAR-8
[10] = test system: RPMI-8226
[11] = test system: SF-268
[12] = test system: SNB-75
[13] = test system: SW-620
[14] = test system: UACC-257
[15] = test system: OVCAR-4

Measured: GI50

C[C@]12CC[C@@H]3c4ccccc4CC[C@H]3[C@@H]1CC[C@@H]2O
inactive: [1] > 100 µM | [2] 80.5 µM | [3] 61.7 µM | [4] > 100 µM | [5] > 100 µM | [6] 68.7 µM | [7] 77.4 µM | [8] > 100 µM | [9] > 100 µM | [10] 53.2 µM | [11] > 100 µM | [12] 54.7 µM | [13] > 100 µM | [14] > 100 µM

CCC1CN2CCc3cc(OC)c(OC)cc3C2CC1CC1c2cc(OC)c(OC)cc2CCN1C(=O)C1CCCN1C(=O)OCc1ccccc1 (configuration not stated)
inactive: [1] 19.4 µM | [2] 22.7 µM | [3] 16.3 µM | [4] 16.2 µM | [5] 15.9 µM | [6] 16.3 µM | [7] 15 µM | [8] 16.3 µM | [15] 12.2 µM | [9] 17.1 µM | [10] 15 µM | [11] 17.1 µM | [12] 14.4 µM | [13] 14.8 µM | [14] 16.9 µM

CC(O)c1ccc(C(O)/C(=N\NC(=O)c2ccncc2)c2nc3ccc([N+](=O)[O-])cc3nc2O)cc1 (configuration not stated)
inactive: [1] > 100 µM | [3] 75.2 µM | [4] > 100 µM | [5] > 100 µM | [6] 49 µM | [7] 30 µM | [8] > 100 µM | [15] > 100 µM | [9] > 100 µM | [10] > 100 µM | [11] > 100 µM | [12] > 100 µM | [13] > 100 µM | [14] > 100 µM

CC(C)C1CC2C(=O)N(c3ccccc3)C(=O)C2c2[nH]c3ccccc3c21 (configuration not stated)
inactive: [1] 21.1 µM | [2] 61.7 µM | [3] > 100 µM | [4] 29.2 µM | [5] 34.5 µM | [6] 9.91 µM | [8] 19.5 µM | [15] 2.32 µM | [9] 7.24 µM | [10] 19.8 µM | [12] 6.98 µM | [13] 8.26 µM | [14] 34.6 µM

CCOc1ccccc1NC(=O)C(=O)CC(=O)c1sc(Nc2nnc(-c3ccc(Cl)c(Cl)c3)o2)nc1C
inactive: [1] > 100 µM | [2] > 100 µM | [3] > 100 µM | [4] > 100 µM | [5] > 100 µM | [6] > 100 µM | [7] 31.8 µM | [8] > 100 µM | [15] > 100 µM | [9] > 100 µM | [10] 64.3 µM | [11] > 100 µM | [12] > 100 µM | [13] 33.5 µM | [14] 98.9 µM

COc1ccc(C(=O)C(c2ccc(OC)cc2)C2(O)C(=O)Nc3c2ccc(Cl)c3C)cc1 (configuration not stated)
inactive: [1] > 100 µM | [2] > 100 µM | [3] > 100 µM | [4] > 100 µM | [5] > 100 µM | [6] > 100 µM | [7] 91.2 µM | [8] > 100 µM | [15] > 100 µM | [9] > 100 µM | [10] > 100 µM | [11] > 100 µM | [12] 37.3 µM | [13] > 100 µM | [14] 92.9 µM

CCCCCCC(=O)C/C(CCC(=O)N(Cc1ccccc1)Cc1ccccc1)=N\NC(N)=O
inactive: [1] > 100 µM | [2] > 100 µM | [3] > 100 µM | [4] > 100 µM | [5] > 100 µM | [6] > 100 µM | [7] > 100 µM | [8] > 100 µM | [15] > 100 µM | [9] > 100 µM | [10] > 100 µM | [11] > 100 µM | [12] > 100 µM | [13] > 100 µM | [14] > 100 µM

O=C(NCc1ccncc1)C1COc2cc(-c3cc(=O)c4ccccc4o3)ccc2O1 (configuration not stated)
inactive: [1] > 100 µM | [2] > 100 µM | [3] > 100 µM | [4] > 100 µM | [5] > 100 µM | [6] > 100 µM | [7] > 100 µM | [8] > 100 µM | [15] > 100 µM | [9] > 100 µM | [12] 38.1 µM | [13] > 100 µM | [14] > 100 µM

COc1ccc(OC)c(NC(=O)C(=O)CC(=O)c2sc(-n3nc(-c4ccccc4)cc3-c3ccccc3)nc2C)c1
inactive: [1] > 100 µM | [3] > 100 µM | [4] > 100 µM | [5] > 100 µM | [6] > 100 µM | [7] > 100 µM | [8] > 100 µM | [15] > 100 µM | [9] > 100 µM | [10] > 100 µM | [12] > 100 µM | [13] > 100 µM | [14] > 100 µM

CC1(C2COC(=O)C2)SCCCS1 (configuration not stated)
inactive: [1] > 100 µM | [2] > 100 µM | [3] > 100 µM | [4] > 100 µM | [5] > 100 µM | [6] 98.4 µM | [7] > 100 µM | [8] > 100 µM | [15] > 100 µM | [9] > 100 µM | [11] > 100 µM | [12] > 100 µM | [13] > 100 µM | [14] > 100 µM

N#C/C(=C\c1ccccc1F)C(=O)c1ccccc1
inactive: [1] > 100 µM | [2] > 100 µM | [3] > 100 µM | [4] > 100 µM | [5] > 100 µM | [6] > 100 µM | [7] > 100 µM | [8] > 100 µM | [15] > 100 µM | [9] > 100 µM | [10] > 100 µM | [11] > 100 µM | [13] > 100 µM | [14] > 100 µM

CC(C)(C)c1ccc2c(c1)S(=O)(=O)Nc1ccccc1NS(=O)(=O)c1cc(C(C)(C)C)ccc1OCCOCCOCCO2
inactive: [1] > 100 µM | [2] 71.8 µM | [3] > 100 µM | [4] > 100 µM | [5] > 100 µM | [6] > 100 µM | [7] > 100 µM | [8] > 100 µM | [15] 20.9 µM | [9] 70 µM | [11] 48.4 µM | [12] 39.2 µM | [13] > 100 µM | [14] > 100 µM

CCSc1nc(-c2ccc(OC)cc2)c(C#N)c(=O)n1C1OCC(OC(C)=O)C(OC(C)=O)C1OC(C)=O (configuration not stated)
inactive: [1] > 100 µM | [2] > 100 µM | [3] > 100 µM | [4] > 100 µM | [5] 77.8 µM | [6] > 100 µM | [8] 94.6 µM | [15] > 100 µM | [10] 78.5 µM | [11] > 100 µM | [12] 65.6 µM | [13] > 100 µM | [14] > 100 µM

CC(C)(C)C(=O)OCC(COC(=O)C(C)(C)C)[N+](=O)[O-]
inactive: [1] > 100 µM | [2] > 100 µM | [3] > 100 µM | [5] > 100 µM | [6] > 100 µM | [7] > 100 µM | [8] > 100 µM | [15] > 100 µM | [9] > 100 µM | [10] 45.3 µM | [11] > 100 µM | [12] > 100 µM | [13] > 100 µM | [14] > 100 µM

CCN(CC)C(=O)c1c(Cl)cc(N(CC)CC)oc1=O
inactive: [1] > 100 µM | [2] > 100 µM | [3] > 100 µM | [4] > 100 µM | [5] > 100 µM | [6] > 100 µM | [7] > 100 µM | [8] > 100 µM | [15] > 100 µM | [9] > 100 µM | [10] > 100 µM | [11] > 100 µM | [12] > 100 µM | [13] > 100 µM | [14] > 100 µM

CCSC(SCC)c1cc2c(cc1Br)OCO2
inactive: [1] 33 µM | [2] 31.8 µM | [3] 17.8 µM | [4] 60.3 µM | [5] 55.8 µM | [6] 35.6 µM | [7] 16.2 µM | [8] 26.7 µM | [15] 57.8 µM | [9] 31.3 µM | [10] 19.4 µM | [11] 35 µM | [12] 18.8 µM | [13] 10.6 µM

CC(=O)OCC1OC(n2c(-c3ccc(N)cc3)cc(-c3ccco3)c(C#N)c2=O)C(OC(C)=O)C(OC(C)=O)C1OC(C)=O (configuration not stated)
inactive: [1] 14.2 µM | [2] > 50 µM | [3] > 50 µM | [4] > 50 µM | [5] 45 µM | [6] 7.29 µM | [7] 8.04 µM | [8] 26 µM | [15] 38.5 µM | [9] 5.87 µM | [11] 11.5 µM | [12] > 50 µM | [13] > 50 µM | [14] > 50 µM

ClC1=C(Cl)C(Cl)(Cl)c2c3c(c4c(c21)C(Cl)(Cl)C(Cl)=C4Cl)C(Cl)(Cl)C(Cl)=C3Cl
inactive: [1] > 100 µM | [2] > 100 µM | [3] > 100 µM | [4] > 100 µM | [5] > 100 µM | [6] > 100 µM | [7] > 100 µM | [8] > 100 µM | [9] > 100 µM | [10] > 100 µM | [11] > 100 µM | [13] > 100 µM | [14] > 100 µM

C#CCOCn1cnc2c(Cl)ncnc21
inactive: [1] > 100 µM | [2] > 100 µM | [3] > 100 µM | [4] > 100 µM | [5] > 100 µM | [6] > 100 µM | [7] 52.6 µM | [8] > 100 µM | [15] > 100 µM | [9] > 100 µM | [10] > 100 µM | [11] > 100 µM | [12] > 100 µM | [13] > 100 µM | [14] > 100 µM
